Assays:
Type in all cases: in vivo
[1] = test system: Alopecurus myosuroides (ALOMY); experiment: Example A pre-emergence herbicidal test, glasshouse; details: rate 250 g/ha, evaluated after 20 days, 100=total damage to plant, 0=no damage to plant
Protocol: (§1) Seeds of a variety of test species were sown in standard soil in pots. After cultivation for one day (pre-emergence) or after 10 days cultivation (post-emergence) under controlled conditions in a glasshouse, the plants were sprayed with an aqueous spray solution derived from the formulation of the technical active ingredient in 0.6 ml acetone and 45 ml formulation solution containing 10.6% Emulsogen EL (Registry number 61791-12-6), 42.2% N-methylpyrrolidone, 42.2% dipropylene glycol monomethyl ether (Registry number 34590-94-8) and 0.2% X-77 (Registry number 11097-66-8). The test plants were then grown in a greenhouse under optimum conditions until, 14 or 15 days later for post-emergence and 20 days for pre-emergence, the test was evaluated (100=total damage to plant; 0=no damage to plant). Test Plants: Alopecurus myosuroides (ALOMY), Avena fatua (AVEFA), Lolium perenne (LOLPE), Setaria faberi (SETFA), Digitaria sanguinalis (DIGSA), Echinochloa crus-galli (ECHCG)

[2] = test system: Avena fatua (AVEFA); experiment: as above; details: rate 250 g/ha, evaluated after 20 days, 100=total damage to plant, 0=no damage to plant
Protocol: as §1

[3] = test system: Digitaria sanguinalis (DIGSA); experiment: as above; details: rate 250 g/ha, evaluated after 20 days, 100=total damage to plant, 0=no damage to plant
Protocol: as §1

[4] = test system: Echinochloa crus-galli (ECHCG); experiment: as above; details: rate 250 g/ha, evaluated after 20 days, 100=total damage to plant, 0=no damage to plant
Protocol: as §1

[5] = test system: Lolium perenne (LOLPE); experiment: as above; details: rate 250 g/ha, evaluated after 20 days, 100=total damage to plant, 0=no damage to plant
Protocol: as §1

[6] = test system: Setaria faberi (SETFA); experiment: as above; details: rate 250 g/ha, evaluated after 20 days, 100=total damage to plant, 0=no damage to plant
Protocol: as §1

[7] = test system: Alopecurus myosuroides (ALOMY); experiment: Example A post-emergence herbicidal test, glasshouse; details: rate 125 g/ha, evaluated 14 or 15 days later, 100=total damage to plant, 0=no damage to plant
Protocol: as §1

[8] = test system: Avena fatua (AVEFA); experiment: as above; details: rate 125 g/ha, evaluated 14 or 15 days later, 100=total damage to plant, 0=no damage to plant
Protocol: as §1

[9] = test system: Digitaria sanguinalis (DIGSA); experiment: as above; details: rate 125 g/ha, evaluated 14 or 15 days later, 100=total damage to plant, 0=no damage to plant
Protocol: as §1

[10] = test system: Echinochloa crus-galli (ECHCG); experiment: as above; details: rate 125 g/ha, evaluated 14 or 15 days later, 100=total damage to plant, 0=no damage to plant
Protocol: as §1

[11] = test system: Lolium perenne (LOLPE); experiment: as above; details: rate 125 g/ha, evaluated 14 or 15 days later, 100=total damage to plant, 0=no damage to plant
Protocol: as §1

[12] = test system: Setaria faberi (SETFA); experiment: as above; details: rate 125 g/ha, evaluated 14 or 15 days later, 100=total damage to plant, 0=no damage to plant
Protocol: as §1

[13] = test system: Alopecurus myosuroides (ALOMY); experiment: Example B post-emergence herbicidal test, glasshouse; details: 312 h, rate 1000 g/ha, evaluated after 13 days, read-out: Post-Emergence Activity ALOMY (100=total damage to plant; 0=no damage to plant)
In short: (§2)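 Glasshouse spray assay on soil-grown plants; application one day (pre-emergence) or 8 days (post-emergence) after sowing. Evaluation at 13 days, 0–100 damage score.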

[14] = test system: Amaranthus retoflexus (AMARE); experiment: as above; details: Amaranthus retroflexus, 312 h, rate 1000 g/ha, evaluated after 13 days, read-out: Post-Emergence Activity AMARE (100=total damage to plant; 0=no damage to plant)
In short: as §2

[15] = test system: Avena fatua (AVEFA); experiment: as above; details: 312 h, rate 1000 g/ha, evaluated after 13 days, read-out: Post-Emergence Activity AVEFA (100=total damage to plant; 0=no damage to plant)
In short: as §2

[16] = test system: Echinochloa crus-galli (ECHCG); experiment: as above; details: 312 h, rate 1000 g/ha, evaluated after 13 days, read-out: Post-Emergence Activity ECHCG (100=total damage to plant; 0=no damage to plant)
In short: as §2

[17] = test system: Setaria faberi (SETFA); experiment: as above; details: 312 h, rate 1000 g/ha, evaluated after 13 days, read-out: Post-Emergence Activity SETFA (100=total damage to plant; 0=no damage to plant)
In short: as §2

[18] = test system: Solanum nigrum (SOLNI); experiment: as above; details: 312 h, rate 1000 g/ha, evaluated after 13 days, read-out: Post-Emergence Activity SOLNI (100=total damage to plant; 0=no damage to plant)
In short: as §2

| Structure (SMILES) | Pre-Emergence Activity ALOMY [1] | Pre-Emergence Activity AVEFA [2] | Pre-Emergence Activity DIGSA [3] | Pre-Emergence Activity ECHCG [4] | Pre-Emergence Activity LOLPE [5] | Pre-Emergence Activity SETFA [6] | Post-Emergence Activity ALOMY [7] | Post-Emergence Activity AVEFA [8] | Post-Emergence Activity DIGSA [9] | Post-Emergence Activity ECHCG [10] | Post-Emergence Activity LOLPE [11] | Post-Emergence Activity SETFA [12] | pest or weed control at 1000 g/ha [13] [%] | pest or weed control at 1000 g/ha [14] [%] | pest or weed control at 1000 g/ha [15] [%] | pest or weed control at 1000 g/ha [16] [%] | pest or weed control at 1000 g/ha [17] [%] | pest or weed control at 1000 g/ha [18] [%] |
| --- | --- | --- | --- | --- | --- | --- | --- | --- | --- | --- | --- | --- | --- | --- | --- | --- | --- | --- |
| CCc1sc(-c2ccc(Cl)cc2)nc1C1C(=O)C(C)(C)OC(C)(C)C1=O [Compound T11, 4-[2-(4-chlorophenyl)-5-ethylthiazol-4-yl]-2,2,6,6-tetramethylpyran-3,5-dione] | 100 | 100 | 100 | 100 | 100 | 100 | 90 | 80 | 100 | 100 | 60 | 100 | – | – | – | – | – | – |
| Cc1[se]c(-c2ccc(Cl)cc2)nc1C1C(=O)C(C)(C)OC(C)(C)C1=O [Compound T16, 5-[2-(4-chlorophenyl)-5-methylselenazol-4-yl]-2,2,6,6-tetramethylpyran-3,5-dione] | 90 | 50 | 100 | 60 | 100 | 0 | 70 | 70 | 90 | 100 | 60 | 90 | – | – | – | – | – | – |
| CCc1sc(-c2ccc(Cl)cc2)nc1C1C(=O)C(C)(C)C(=O)C(C)(C)C1=O [Compound T6] | 50 | 20 | 70 | 50 | 80 | 60 | 70 | 60 | 70 | 70 | 30 | 70 | 90 | 0 | 90 | 90 | 100 | 0 |

— patent US8956999B2, “Herbicides” (Syngenta Limited, priority 2007, dated 2015)
